# Values joined by “and” are separate entries in the source; they are usually repeats but may differ in a detail not shown here. Identical values can stand only once. Records with an inconclusive call do not appear.
# Tested on: BDF1 mice, s.c. Lewis lung carcinoma, T/C %
# Assay: NCI In Vivo Anticancer Drug Screen. Data for tumor model Lewis Lung Carcinoma (subcutaneous) in B6D2F1 (BDF1) mice
# Outline: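 The value reflects a ratio in which the treated cohort's survival time or tumour size is compared against mice receiving only vehicle.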
# [1] = endpoint: mean tumor weight, dose: 25.0 mg/kg/injection, schedule: Q01DX011 (ip), vehicle: saline, higher = larger tumour
# [2] = endpoint: mean tumor weight, dose: 12.5 mg/kg/injection, schedule: Q01DX011 (ip), vehicle: saline, higher = larger tumour
# [3] = endpoint: mean tumor weight, dose: 50.0 mg/kg/injection, schedule: Q01DX011 (ip), vehicle: saline, higher = larger tumour
# [4] = endpoint: mean tumor weight, dose: 100.0 mg/kg/injection, schedule: Q01DX011 (ip), vehicle: saline, higher = larger tumour
structure (smiles),measurement,setting,value
O=c1cc(-c2ccccc2)oc2ccc(O)cc12,T/C,"endpoint: mean tumor weight, dose: 3.13 mg/kg/injection, schedule: Q01DX011 (ip), vehicle: saline, higher = larger tumour",109 % of control
same,T/C,"endpoint: mean tumor weight, dose: 6.25 mg/kg/injection, schedule: Q01DX011 (ip), vehicle: saline, higher = larger tumour",68 % of control
same,T/C,"endpoint: mean tumor weight, dose: 25.0 mg/kg/injection, schedule: Q01DX010 (ip), vehicle: saline, higher = larger tumour",77 % of control
same,T/C,[1],119 % of control
same,T/C,"endpoint: mean tumor weight, dose: 50.0 mg/kg/injection, schedule: Q01DX010 (ip), vehicle: saline, higher = larger tumour",101 % of control
same,T/C,"endpoint: mean tumor weight, dose: 100.0 mg/kg/injection, schedule: Q01DX010 (ip), vehicle: saline, higher = larger tumour",86 % of control
same,T/C,"endpoint: mean tumor weight, dose: 200.0 mg/kg/injection, schedule: Q01DX010 (ip), vehicle: saline, higher = larger tumour",97 % of control
N/C(=N\Cl)C(Cl)(Cl)Cl,T/C,"endpoint: median survival time, dose: 6.25 mg/kg/injection, schedule: Q01DX009 (ip), vehicle: other, higher = longer survival",101 % of control
same,T/C,"endpoint: median survival time, dose: 12.5 mg/kg/injection, schedule: Q01DX009 (ip), vehicle: other, higher = longer survival",110 % of control
same,T/C,"endpoint: median survival time, dose: 25.0 mg/kg/injection, schedule: Q01DX009 (ip), vehicle: other, higher = longer survival",100 % of control
same,T/C,"endpoint: median survival time, dose: 50.0 mg/kg/injection, schedule: Q01DX009 (ip), vehicle: other, higher = longer survival",96 % of control
C/C=C/c1cc2n(c1)C(=O)c1cc(OC3OC(C)C(NC)C(C)(O)C3O)c(C)c(O)c1NC2O (stereo not drawn),T/C,"endpoint: median survival time, dose: 2.0 micrograms/kg/injection, schedule: Q04DX003 (ip), vehicle: saline, higher = longer survival",102 % of control
same,T/C,"endpoint: median survival time, dose: 4.0 micrograms/kg/injection, schedule: Q04DX003 (ip), vehicle: saline, higher = longer survival",92 % of control
same,T/C,"endpoint: median survival time, dose: 8.0 micrograms/kg/injection, schedule: Q04DX003 (ip), vehicle: saline, higher = longer survival",103 % of control
same,T/C,"endpoint: median survival time, dose: 16.0 micrograms/kg/injection, schedule: Q04DX003 (ip), vehicle: saline, higher = longer survival",95 % of control
O=NN(CCCl)C(=O)Nc1cccc(O)c1,T/C,"endpoint: median survival time, dose: 25.0 mg/kg/injection, schedule: Q01DX009 (ip), vehicle: Klucel (hydroxypropylcellulose) (HPC), higher = longer survival",116 % of control
Cc1nc(N)nc(N)c1-c1ccc(Cl)c(Cl)c1,T/C,"endpoint: mean tumor weight, dose: 0.9 mg/kg/injection, schedule: Q01DX011 (ip), vehicle: carboxymethylcellulose (CMC), higher = larger tumour",80 % of control
same,T/C,"endpoint: mean tumor weight, dose: 1.3 mg/kg/injection, schedule: Q01DX011 (ip), vehicle: carboxymethylcellulose (CMC), higher = larger tumour",89 % of control
same,T/C,"endpoint: mean tumor weight, dose: 2.0 mg/kg/injection, schedule: Q01DX011 (ip), vehicle: carboxymethylcellulose (CMC), higher = larger tumour",92 % of control
same,T/C,"endpoint: mean tumor weight, dose: 2.0 mg/kg/injection, schedule: Q01DX011 (ip), vehicle: other, higher = larger tumour",22 % of control
same,T/C,"endpoint: mean tumor weight, dose: 3.0 mg/kg/injection, schedule: Q01DX011 (ip), vehicle: carboxymethylcellulose (CMC), higher = larger tumour",45 % of control
same,T/C,"endpoint: mean tumor weight, dose: 6.0 mg/kg/injection, schedule: Q01DX011 (ip), vehicle: other, higher = larger tumour",4 % of control
same,T/C,"endpoint: median survival time, dose: 0.39 mg/kg/injection, schedule: Q01DX009 (ip), vehicle: saline, higher = longer survival",96 % of control
same,T/C,"endpoint: median survival time, dose: 0.78 mg/kg/injection, schedule: Q01DX009 (ip), vehicle: saline, higher = longer survival",108 % of control
same,T/C,"endpoint: median survival time, dose: 1.0 mg/kg/injection, schedule: Q02DX009 (ip), vehicle: Klucel (hydroxypropylcellulose) (HPC), higher = longer survival",105 % of control
same,T/C,"endpoint: median survival time, dose: 1.56 mg/kg/injection, schedule: Q01DX009 (ip), vehicle: saline, higher = longer survival",123 % of control
same,T/C,"endpoint: median survival time, dose: 2.0 mg/kg/injection, schedule: Q02DX009 (ip), vehicle: Klucel (hydroxypropylcellulose) (HPC), higher = longer survival",108 % of control
same,T/C,"endpoint: median survival time, dose: 3.13 mg/kg/injection, schedule: Q01DX009 (ip), vehicle: saline, higher = longer survival",112 % of control
O=NN(CCCl)C(=O)NC1CCCC1,T/C,"endpoint: median tumor weight (est.), dose: 33.0 mg/kg/injection, schedule: Q01DX001 (ip), vehicle: saline, higher = larger tumour",62 % of control
same,T/C,"endpoint: median tumor weight (est.), dose: 67.0 mg/kg/injection, schedule: Q01DX001 (ip), vehicle: saline, higher = larger tumour",76 % of control
same,T/C,"endpoint: median tumor weight (est.), dose: 100.0 mg/kg/injection, schedule: Q01DX001 (ip), vehicle: saline, higher = larger tumour",56 % of control
O=C(/C=C/c1ccc(O)c(O)c1)c1ccc(O)c(O)c1O,T/C,[2],57 % of control
same,T/C,[1],89 % of control
same,T/C,[3],64 % of control
same,T/C,[4],59 % of control
Nc1ncnc2nc[nH]c12,T/C,[2],101 % of control
same,T/C,[1],104 % of control
same,T/C,[3],84 % of control
same,T/C,[4],43 % of control and 49 % of control
Nc1ncn(C2CC(O)C(CO)O2)c(=O)n1 (stereo not drawn),T/C,"endpoint: median survival time, dose: 0.05 mg/kg/injection, schedule: Q01DX009 (ip), vehicle: saline, higher = longer survival",102 % of control
same,T/C,"endpoint: median survival time, dose: 0.1 mg/kg/injection, schedule: Q01DX009 (ip), vehicle: saline, higher = longer survival",102 % of control and 109 % of control
same,T/C,"endpoint: median survival time, dose: 0.2 mg/kg/injection, schedule: Q01DX009 (ip), vehicle: saline, higher = longer survival",109 % of control and 112 % of control
same,T/C,"endpoint: median survival time, dose: 0.8 mg/kg/injection, schedule: Q01DX009 (ip), vehicle: Klucel (hydroxypropylcellulose) (HPC), higher = longer survival",167 % of control
